Data on 16 compounds can be found in patent US12600709B2, “Nonpeptide somatostatin type 5 receptor agonists and uses thereof” (Crinetics Pharmaceuticals, Inc., priority 2019, dated 2026).

Read-outs that look alike come from different tables or passages of the source.

The target of assay [1] is T1, human somatostatin receptor subtype 2 (Homo sapiens, UniProt P30874).
T1 construct: expressed in transfected cells
Nature of the assay: cAMP assay for SST2R (inhibition of cAMP in CHO-K1 cells). The class given is cell-based. To be noted: Table B; inhibition of cAMP via human SST2 receptor; read-out: SST2 potency. In short, it runs like this:
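CHO-K1 cells stably expressing human SSTR2, plated 4 days prior, treated 20 min at 37° C with 1.6 μM NKH477 plus compound dilutions in HBSS/HEPES pH 7.4/0.1% BSA/0.2 mM IBMX. Lysate cAMP measured by HTRF against standard curve; EC50 from concentration-response.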
For orientation: Changes in cAMP serve as a functional read-out for many G protein-coupled receptors.

In assay [2] the target is T2, human somatostatin receptor subtype 5 (Homo sapiens, UniProt P35346).
T2 construct: expressed in transfected cells
In words: cAMP assay for SST5R (inhibition of cAMP in CHO-K1 cells). The class given is cell-based. The settings on record: for EC50: inhibition of cAMP via human SST5 receptor, read-out: SST5 potency; for Fold selectivity for SST5 vs SST2: class symbols, SST5 receptor over SST2 receptor. In short, it runs like this:
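CHO-K1 cells stably expressing human SSTR5 were treated 20 min at 37 °C with compounds plus 1.6 μM NKH477 in HBSS, 0.5 mM HEPES pH 7.4, 0.1% BSA, 0.2 mM IBMX. Lysate cAMP measured by HTRF against a standard curve; EC50 from cAMP-versus-concentration plots.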

T2 sequence (P35346 whole entry): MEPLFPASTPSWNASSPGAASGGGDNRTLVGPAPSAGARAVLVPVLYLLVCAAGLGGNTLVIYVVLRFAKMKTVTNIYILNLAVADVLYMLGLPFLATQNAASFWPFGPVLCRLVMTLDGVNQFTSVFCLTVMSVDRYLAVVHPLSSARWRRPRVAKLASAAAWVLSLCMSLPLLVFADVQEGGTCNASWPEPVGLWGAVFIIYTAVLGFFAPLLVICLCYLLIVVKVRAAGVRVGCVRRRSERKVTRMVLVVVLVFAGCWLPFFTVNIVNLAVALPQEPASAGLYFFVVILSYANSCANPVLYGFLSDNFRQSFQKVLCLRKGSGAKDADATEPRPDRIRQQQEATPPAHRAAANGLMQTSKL
T1 sequence (P30874 whole entry): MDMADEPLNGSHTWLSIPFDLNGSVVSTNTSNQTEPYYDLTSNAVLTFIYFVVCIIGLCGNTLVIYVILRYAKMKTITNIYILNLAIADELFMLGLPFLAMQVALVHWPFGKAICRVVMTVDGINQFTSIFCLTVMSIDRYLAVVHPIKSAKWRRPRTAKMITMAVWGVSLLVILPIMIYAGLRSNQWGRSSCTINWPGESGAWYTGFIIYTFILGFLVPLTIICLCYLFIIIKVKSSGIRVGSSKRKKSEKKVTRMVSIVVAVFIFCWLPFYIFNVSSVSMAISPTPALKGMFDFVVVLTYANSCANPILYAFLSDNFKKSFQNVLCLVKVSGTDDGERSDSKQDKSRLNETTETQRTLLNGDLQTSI

For `COc1cc(-c2c(C#N)ncc(C(=O)NCC(C)C)c2N2CC[C@](C)(N)C2)ccn1` [1-270, 4-[(3S)-3-amino-3-methylpyrrolidin-1-yl]-2-cyano-2′-methoxy-N-(2-methylpropyl)-[3,4′-bipyridine]-5-carboxamide], the EC50 in assay [1] is more than 1000 nM; in assay [2] (Table A), less than 10 nM; in assay [2] (Table B), less than 10 nM. In addition, the “Fold selectivity for SST5 vs SST2” value in assay [2] (Table B) was “+++ (+++=>500)”.
Consider `CCCCNC(=O)c1cnc(C#N)c(-c2ccnc(OC)c2)c1N1CC[C@](C)(N)C1` [1-271], for which the EC50 was more than 1000 nM in assay [1], less than 10 nM in assay [2] (Table A) and less than 10 nM in assay [2] (Table B). In assay [2] (Table B), the “Fold selectivity for SST5 vs SST2” value is “+++ (+++=>500)”.
On to `Cc1ncc(C(=O)N[C@@H](C)C2CC2)c(N2CC[C@H](N)C2)c1-c1cc(F)cc(Cl)c1` [1-272, 4-[(3S)-3-aminopyrrolidin-1-yl]-5-(3-chloro-5-fluorophenyl)-N-[(1S)-1-cyclopropylethyl]-6-methylpyridine-3-carboxamide], for which the EC50 in assay [1] is 100 to 1000 nM; in assay [2] (Table A) it was less than 10 nM; in assay [2] (Table B), less than 10 nM. In addition, the “Fold selectivity for SST5 vs SST2” value in assay [2] (Table B) is “+++ (+++=>500)”.
In the case of `COc1ncc(C(=O)NC23CC(F)(C2)C3)c(N2CC[C@](C)(N)C2)c1-c1cc(F)cc(F)c1` [1-273, 4-[(3S)-3-amino-3-methylpyrrolidin-1-yl]-5-(3,5-difluorophenyl)-N-{3-fluorobicyclo[1.1.1]pentan-1-yl}-6-methoxypyridine-3-carboxamide], the EC50 in assay [1] was 100 to 1000 nM; in assay [2] (Table A), less than 10 nM; in assay [2] (Table B) it was less than 10 nM. Also, the “Fold selectivity for SST5 vs SST2” value in assay [2] (Table B) was “+++ (+++=>500)”.
Take `COc1cc(C#N)cc(-c2c(C)ncc(C(=O)N[C@@H](C)C(F)(F)F)c2N2CC[C@](C)(N)C2)c1` [1-275, 4-[(3S)-3-amino-3-methylpyrrolidin-1-yl]-5-(3-cyano-5-methoxyphenyl)-6-methyl-N-[(2S)-1,1,1-trifluoropropan-2-yl]pyridine-3-carboxamide]: the EC50 in assay [1] is 100 to 1000 nM; in assay [2] (Table A) it was less than 10 nM; in assay [2] (Table B), less than 10 nM. The “Fold selectivity for SST5 vs SST2” value in assay [2] (Table B) was “+++ (+++=>500)”.
Take `Cc1ncc(C(=O)N[C@@H](C)C(F)(F)F)c(N2CC[C@H](N)C2)c1-c1cc(F)cc(Cl)c1` [1-276, 4-[(3S)-3-aminopyrrolidin-1-yl]-5-(3-chloro-5-fluorophenyl)-6-methyl-N-[(2S)-1,1,1-trifluoropropan-2-yl]pyridine-3-carboxamide]: the figures for the EC50 in assay [1], in assay [2] (Table A) and in assay [2] (Table B) were 100 to 1000 nM, less than 10 nM and less than 10 nM, respectively. For the same compound, the “Fold selectivity for SST5 vs SST2” value in assay [2] (Table B) is “++ (++=100 to 499)”.
Consider `Cc1ncc(C(=O)NC2CCC(F)(F)CC2)c(N2CC[C@H](N)C2)c1-c1cc(F)cc(Cl)c1` [1-277, 4-[(3S)-3-aminopyrrolidin-1-yl]-5-(3-chloro-5-fluorophenyl)-N-(4,4-difluorocyclohexyl)-6-methylpyridine-3-carboxamide], for which the results for the EC50 in assay [1], in assay [2] (Table A) and in assay [2] (Table B) were more than 1000 nM, less than 10 nM and less than 10 nM, respectively. Besides, the “Fold selectivity for SST5 vs SST2” value in assay [2] (Table B) is recorded as “+++ (+++=>500)”.
With `Cc1ncc(C(=O)NC23CC(F)(C2)C3)c(N2CC[C@H](N)C2)c1-c1cc(F)cc(Cl)c1` [1-278, 4-[(3S)-3-aminopyrrolidin-1-yl]-5-(3-chloro-5-fluorophenyl)-N-{3-fluorobicyclo[1.1.1]pentan-1-yl}-6-methylpyridine-3-carboxamide], the EC50 in assay [1] was more than 1000 nM; in assay [2] (Table A) it was less than 10 nM; in assay [2] (Table B), less than 10 nM. Besides, the “Fold selectivity for SST5 vs SST2” value in assay [2] (Table B) is on record as “+++ (+++=>500)”.
Turning to `Cc1ncc(C(=O)N[C@@H](C)C(F)(F)F)c(N2CC[C@](C)(N)C2)c1-c1ccc(F)c(F)c1` [1-279, 4-[(3S)-3-amino-3-methylpyrrolidin-1-yl]-5-(3,4-difluorophenyl)-6-methyl-N-[(2S)-1,1,1-trifluoropropan-2-yl]pyridine-3-carboxamide], the EC50 in assay [1] was 100 to 1000 nM; in assay [2] (Table A), less than 10 nM; in assay [2] (Table B) it was less than 10 nM. The “Fold selectivity for SST5 vs SST2” value in assay [2] (Table B) is “+++ (+++=>500)”.
Take `COc1ncc(C(=O)N[C@@H](C)C2CC2)c(N2CC[C@H](N)C2)c1-c1cc(F)cc(Cl)c1` [1-282, 4-[(3S)-3-aminopyrrolidin-1-yl]-5-(3-chloro-5-fluorophenyl)-N-[(1S)-1-cyclopropylethyl]-6-methoxypyridine-3-carboxamide]: the EC50 in assay [1] was 100 to 1000 nM; in assay [2] (Table A) it was less than 10 nM; in assay [2] (Table B), less than 10 nM. Also, the “Fold selectivity for SST5 vs SST2” value in assay [2] (Table B) is “+++ (+++=>500)”.
For the compound `COc1ncc(C(=O)N[C@@H](C)C(F)(F)F)c(N2CC[C@H](N)C2)c1-c1cc(F)cc(Cl)c1` [1-283, 4-[(3S)-3-aminopyrrolidin-1-yl]-5-(3-chloro-5-fluorophenyl)-6-methoxy-N-[(2S)-1,1,1-trifluoropropan-2-yl]pyridine-3-carboxamide], the EC50 in assay [1] is 100 to 1000 nM; in assay [2] (Table A), less than 10 nM; in assay [2] (Table B) it was less than 10 nM. Further, the “Fold selectivity for SST5 vs SST2” value in assay [2] (Table B) was “+++ (+++=>500)”.
As to `COc1ncc(C(=O)NC2CCC(F)(F)CC2)c(N2CC[C@H](N)C2)c1-c1cc(F)cc(Cl)c1` [1-284, 4-[(3S)-3-aminopyrrolidin-1-yl]-5-(3-chloro-5-fluorophenyl)-N-(4,4-difluorocyclohexyl)-6-methoxypyridine-3-carboxamide], the figures for the EC50 in assay [1], in assay [2] (Table A) and in assay [2] (Table B) were 100 to 1000 nM, less than 10 nM and less than 10 nM, respectively. The “Fold selectivity for SST5 vs SST2” value in assay [2] (Table B) is listed as “+++ (+++=>500)”.
Consider `COc1ncc(C(=O)NC2CC(F)(F)C2)c(N2CC[C@H](N)C2)c1-c1cc(F)cc(Cl)c1` [1-285, 4-[(3S)-3-aminopyrrolidin-1-yl]-5-(3-chloro-5-fluorophenyl)-N-(3,3-difluorocyclobutyl)-6-methoxypyridine-3-carboxamide], for which the values for the EC50 in assay [1], in assay [2] (Table A) and in assay [2] (Table B) were 100 to 1000 nM, less than 10 nM and less than 10 nM, respectively. Further, the “Fold selectivity for SST5 vs SST2” value in assay [2] (Table B) is “+++ (+++=>500)”.
With `COc1ncc(C(=O)NC23CC(F)(C2)C3)c(N2CC[C@H](N)C2)c1-c1cc(F)cc(Cl)c1` [1-286, 4-[(3S)-3-aminopyrrolidin-1-yl]-5-(3-chloro-5-fluorophenyl)-N-{3-fluorobicyclo[1.1.1]pentan-1-yl}-6-methoxypyridine-3-carboxamide], the EC50 is 100 to 1000 nM in assay [1], less than 10 nM in assay [2] (Table A) and less than 10 nM in assay [2] (Table B). The “Fold selectivity for SST5 vs SST2” value in assay [2] (Table B) was “+++ (+++=>500)”.
On to `Cc1ncc(C(=O)N[C@@H](C)C(F)(F)F)c(N2CC[C@](C)(N)C2)c1-c1ccc(F)c(Cl)c1` [1-287, 4-[(3S)-3-amino-3-methylpyrrolidin-1-yl]-5-(3-chloro-4-fluorophenyl)-6-methyl-N-[(2S)-1,1,1-trifluoropropan-2-yl]pyridine-3-carboxamide], for which the EC50 is 10 to 100 nM in assay [1], less than 10 nM in assay [2] (Table A) and less than 10 nM in assay [2] (Table B). The “Fold selectivity for SST5 vs SST2” value in assay [2] (Table B) is “+++ (+++=>500)”.
With `Cc1ncc(C(=O)N[C@@H](C)C2CC2)c(N2CC[C@](C)(N)C2)c1-c1ccc(F)c(F)c1` [1-288, 4-[(3S)-3-amino-3-methylpyrrolidin-1-yl]-N-[(1S)-1-cyclopropylethyl]-5-(3,4-difluorophenyl)-6-methylpyridine-3-carboxamide], the EC50 in assay [1] was 100 to 1000 nM; in assay [2] (Table A), less than 10 nM; in assay [2] (Table B), less than 10 nM. Moreover, the “Fold selectivity for SST5 vs SST2” value in assay [2] (Table B) is “+++ (+++=>500)”.
